Source: ChEMBL document CHEMBL1201862, “PubChem BioAssay data set” (2004)
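Step 1: Grow cells in 96-well plates. Step 2: Expose to compound for 48 hours at 5 concentrations. Step 3: Interpolate endpoints linearly; if unreached, use highest concentration. GI50 = concentration required for 50% inhibition of growth.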 The source made the active and inactive calls. No stated cut-off is given here; in the data, active = GI50 up to about 1.1 µM and inactive = higher.

Columns and labels:
Assay in all cases: NCI tumour cell line growth inhibition, 48 h
UACC-62 = system: UACC-62
M14 = system: M14
SW-620 = system: SW-620
CCRF-CEM = system: CCRF-CEM
SN12C = system: SN12C
UACC-257 = system: UACC-257
CAKI-1 = system: CAKI-1
T47D = system: T47D
HCC 2998 = system: HCC 2998
OVCAR-3 = system: OVCAR-3
MOLT-4 = system: MOLT-4
SNB-19 = system: SNB-19
SNB-75 = system: SNB-75
BT-549 = system: BT-549
ACHN = system: ACHN
DU-145 = system: DU-145
NCI/ADR-RES = system: NCI/ADR-RES
A498 = system: A498
NCI-H23 = system: NCI-H23

Structure (SMILES) | GI50 (UACC-62) | GI50 (M14) | GI50 (SW-620) | GI50 (CCRF-CEM) | GI50 (SN12C) | GI50 (UACC-257) | GI50 (CAKI-1) | GI50 (T47D) | GI50 (HCC 2998) | GI50 (OVCAR-3) | GI50 (MOLT-4) | GI50 (SNB-19) | GI50 (SNB-75) | GI50 (BT-549) | GI50 (ACHN) | GI50 (DU-145) | GI50 (NCI/ADR-RES) | GI50 (A498) | GI50 (NCI-H23)
C=CCN1C(=O)/C(=C/c2ccc(Cl)cc2)N=C1SC/C=C/C | 42.3 µM (inactive) | 31 µM (inactive) | 31.8 µM (inactive) | 39.8 µM (inactive) | 21.7 µM (inactive) | 37.8 µM (inactive) | 61.2 µM (inactive) | 21 µM (inactive) | 49.9 µM (inactive) | 44.6 µM (inactive) | 17.5 µM (inactive) | 22.9 µM (inactive) | 75.7 µM (inactive) | 33.9 µM (inactive) | 56.2 µM (inactive) | 60.8 µM (inactive) | 35.2 µM (inactive) | 33.9 µM (inactive) | 32.1 µM (inactive)
CN1C(=O)C(O)CC1c1ccc(C(F)(F)F)cc1 (stereo unspecified) | > 100 µM (inactive) | > 100 µM (inactive) | > 100 µM (inactive) | > 100 µM (inactive) | > 100 µM (inactive) | 44.1 µM (inactive) | > 100 µM (inactive) | > 100 µM (inactive) | > 100 µM (inactive) | > 100 µM (inactive) | > 100 µM (inactive) | > 100 µM (inactive) | > 100 µM (inactive) | > 100 µM (inactive) | > 100 µM (inactive) | > 100 µM (inactive) | > 100 µM (inactive) | > 100 µM (inactive) | > 100 µM (inactive)
CC(=O)NNc1nc(C)c(C(/C=C/c2ccccc2O)=N/NC(=O)c2ccncc2)s1 | > 100 µM (inactive) | > 100 µM (inactive) | > 100 µM (inactive) | > 100 µM (inactive) | > 100 µM (inactive) | > 100 µM (inactive) | > 100 µM (inactive) | > 100 µM (inactive) | > 100 µM (inactive) | > 100 µM (inactive) | > 100 µM (inactive) | > 100 µM (inactive) | > 100 µM (inactive) | > 100 µM (inactive) | > 100 µM (inactive) | > 100 µM (inactive) | > 100 µM (inactive) | > 100 µM (inactive) | > 100 µM (inactive)
O=c1[nH]c2cc(Cl)ccc2nc1/C(=N/Nc1ccccc1)C(O)c1ccco1 (stereo unspecified) | > 100 µM (inactive) | > 100 µM (inactive) | > 100 µM (inactive) | > 100 µM (inactive) | > 100 µM (inactive) | > 100 µM (inactive) | > 100 µM (inactive) | > 100 µM (inactive) | > 100 µM (inactive) | > 100 µM (inactive) | > 100 µM (inactive) | > 100 µM (inactive) | > 100 µM (inactive) | > 100 µM (inactive) | > 100 µM (inactive) | > 100 µM (inactive) | > 100 µM (inactive) | > 100 µM (inactive) | > 100 µM (inactive)
CCOC(=O)C(NC(=O)CC(C)C)(Nc1ccc(S(=O)(=O)Nc2nc(C)cc(C)n2)cc1)C(F)(F)F (stereo unspecified) | > 100 µM (inactive) | > 100 µM (inactive) | > 100 µM (inactive) | > 100 µM (inactive) | > 100 µM (inactive) | > 100 µM (inactive) | > 100 µM (inactive) | > 100 µM (inactive) | 7.87 µM (inactive) | > 100 µM (inactive) | > 100 µM (inactive) | > 100 µM (inactive) | 89.9 µM (inactive) | > 100 µM (inactive) | > 100 µM (inactive) | > 100 µM (inactive) | > 100 µM (inactive) | > 100 µM (inactive) | > 100 µM (inactive)
C=CC1C(OC2OC(CO)C(O)C(O)C2O)OC=C(C(=O)OC)C1CC1CC(=O)CC(CCc2ccc(O)cc2)O1 (stereo unspecified) | > 100 µM (inactive) | > 100 µM (inactive) | > 100 µM (inactive) | > 100 µM (inactive) | > 100 µM (inactive) | > 100 µM (inactive) | > 100 µM (inactive) | > 100 µM (inactive) | > 100 µM (inactive) | > 100 µM (inactive) | > 100 µM (inactive) | > 100 µM (inactive) | > 100 µM (inactive) | > 100 µM (inactive) | > 100 µM (inactive) | > 100 µM (inactive) | > 100 µM (inactive) | > 100 µM (inactive) | > 100 µM (inactive)
COC(=O)c1cc2c(o1)Sc1ccccc1NC2=O | > 100 µM (inactive) | > 100 µM (inactive) | > 100 µM (inactive) | > 100 µM (inactive) | > 100 µM (inactive) | > 100 µM (inactive) | > 100 µM (inactive) | > 100 µM (inactive) | > 100 µM (inactive) | > 100 µM (inactive) | > 100 µM (inactive) | 35.9 µM (inactive) | 24.8 µM (inactive) | > 100 µM (inactive) | 27.1 µM (inactive) | > 100 µM (inactive) | > 100 µM (inactive) | > 100 µM (inactive) | > 100 µM (inactive)
CC(C)(C)C1=CC(=CC=C2C=CN(CCCCCCCCCCCO)C=C2)C=C(C(C)(C)C)C1=O | 1.5 µM (inactive) | 1.75 µM (inactive) | 2.19 µM (inactive) | 0.652 µM (active) | 1.25 µM (inactive) | 1.87 µM (inactive) | 2.48 µM (inactive) | 0.498 µM (active) | 0.838 µM (active) | 1.01 µM (active) | 1.32 µM (inactive) | 1.58 µM (inactive) | 1.82 µM (inactive) | 2.12 µM (inactive) | 2.19 µM (inactive) | 2.88 µM (inactive) | 2.96 µM (inactive) | 3.01 µM (inactive) | 2.03 µM (inactive)
O=C(O)c1c(O)c2cc(Br)ccc2oc1=O | > 100 µM (inactive) | > 100 µM (inactive) | > 100 µM (inactive) | > 100 µM (inactive) | > 100 µM (inactive) | > 100 µM (inactive) | > 100 µM (inactive) | > 100 µM (inactive) | > 100 µM (inactive) | > 100 µM (inactive) | > 100 µM (inactive) | > 100 µM (inactive) | > 100 µM (inactive) | > 100 µM (inactive) | > 100 µM (inactive) | > 100 µM (inactive) | > 100 µM (inactive) | > 100 µM (inactive) | > 100 µM (inactive)
Cc1cnc2c(c1)C(=O)N(c1ccc([N+](=O)[O-])cc1)S2(=O)=O | 75.5 µM (inactive) | > 100 µM (inactive) | 58.7 µM (inactive) | 82.4 µM (inactive) | > 100 µM (inactive) | > 100 µM (inactive) | > 100 µM (inactive) | > 100 µM (inactive) | > 100 µM (inactive) | > 100 µM (inactive) | > 100 µM (inactive) | 56.2 µM (inactive) | 61.1 µM (inactive) | 36.1 µM (inactive) | > 100 µM (inactive) | > 100 µM (inactive) | 74.3 µM (inactive) | 68.4 µM (inactive) | > 100 µM (inactive)
NS(=O)(=O)c1ccc(NCc2cccc3c(=O)c4ccc(Cl)cc4oc23)cc1 | 23.1 µM (inactive) | 27.8 µM (inactive) | 6.38 µM (inactive) | 4.75 µM (inactive) | > 56.6 µM (inactive) | 60.4 µM (inactive) | 41 µM (inactive) | 81.3 µM (inactive) | > 82.4 µM (inactive) | 54.8 µM (inactive) | 19.7 µM (inactive) | 8.07 µM (inactive) | 37.8 µM (inactive) | 42.5 µM (inactive) | 28.4 µM (inactive) | 30.3 µM (inactive) | 32.5 µM (inactive) | > 75.3 µM (inactive) | 31.5 µM (inactive)
CC(C)CC(N)C(=O)Nc1ccc2ccccc2c1 (stereo unspecified) | > 100 µM (inactive) | > 100 µM (inactive) | > 100 µM (inactive) | > 100 µM (inactive) | > 100 µM (inactive) | > 100 µM (inactive) | 63.1 µM (inactive) | > 100 µM (inactive) | > 100 µM (inactive) | 8.2 µM (inactive) | > 100 µM (inactive) | > 100 µM (inactive) | > 100 µM (inactive) | > 100 µM (inactive) | > 100 µM (inactive) | > 100 µM (inactive) | > 100 µM (inactive) | > 100 µM (inactive) | > 100 µM (inactive)
COc1ccccc1N1C(=O)C2C3c4ccccc4C(OC(C)=O)(c4ccccc43)C2C1=O (stereo unspecified) | > 100 µM (inactive) | > 100 µM (inactive) | > 100 µM (inactive) | > 100 µM (inactive) | > 100 µM (inactive) | > 100 µM (inactive) | > 100 µM (inactive) | > 100 µM (inactive) | > 100 µM (inactive) | > 100 µM (inactive) | > 100 µM (inactive) | 17.1 µM (inactive) | 17.5 µM (inactive) | 49.9 µM (inactive) | > 100 µM (inactive) | > 100 µM (inactive) | > 100 µM (inactive) | > 100 µM (inactive) | > 100 µM (inactive)
COc1cc2c(cc1OCCCNC(=O)c1cc3ccccc3[nH]1)N=C[C@@H]1CCCN1C2=O | 0.234 µM (active) | 0.305 µM (active) | 0.378 µM (active) | 0.193 µM (active) | 0.409 µM (active) | 0.448 µM (active) | 0.296 µM (active) | 0.229 µM (active) | 0.664 µM (active) | 0.306 µM (active) | 0.125 µM (active) | 0.445 µM (active) | 0.263 µM (active) | 0.0736 µM (active) | 0.347 µM (active) | 0.223 µM (active) | 2.04 µM (inactive) | 0.0527 µM (active) | 0.504 µM (active)
